Experimental data as given in ChEMBL document CHEMBL1155519, “Discovery of N-phenyl-4-(thiazol-5-yl)pyrimidin-2-amine aurora kinase inhibitors” (J Med Chem, 2010).
In brackets after ≈: the same amount, converted by molar mass. Activity calls are given as the source filed them. No cut-off for these calls is given here.

Experiments:
[1] = Inhibition of PKC
[2] = Inhibition of PKA
[3] = Inhibition of CK2
[4] = system: NCI-H460; assay: Antitumor activity against human NCI-H460 cells xenografted in athymic mouse assessed as reduction in tumor volume at 100 mg/kg, po administered QD on day 1 after implantation for 5 days; format: functional, organism-based; design: dose 100 mg/kg
[5] = system: COLO 205; assay: Cytotoxicity against human COLO205 cells after 96 hrs by MTT assay; format: functional, cell-based; details: COLO 205, 96 h
[6] = system: NCI-H460; assay: Antitumor activity against human NCI-H460 cells xenografted in athymic mouse assessed as reduction in mean tumor volume at 100 mg/kg, po administered QD on day 1 after implantation for 5 days measured on day 9 relative to control; format: functional; design: scale not given: the % may be the effect or the level left
[7] = target: Voltage-gated inwardly rectifying potassium channel KCNH2 (Homo sapiens, UniProt Q12809); assay: Inhibition of human ERG expressed in CHO cells up to 50 uM by patch-clamp electrophysiology; format: cell-based
Voltage-gated inwardly rectifying potassium channel KCNH2, sequence (Q12809 whole entry): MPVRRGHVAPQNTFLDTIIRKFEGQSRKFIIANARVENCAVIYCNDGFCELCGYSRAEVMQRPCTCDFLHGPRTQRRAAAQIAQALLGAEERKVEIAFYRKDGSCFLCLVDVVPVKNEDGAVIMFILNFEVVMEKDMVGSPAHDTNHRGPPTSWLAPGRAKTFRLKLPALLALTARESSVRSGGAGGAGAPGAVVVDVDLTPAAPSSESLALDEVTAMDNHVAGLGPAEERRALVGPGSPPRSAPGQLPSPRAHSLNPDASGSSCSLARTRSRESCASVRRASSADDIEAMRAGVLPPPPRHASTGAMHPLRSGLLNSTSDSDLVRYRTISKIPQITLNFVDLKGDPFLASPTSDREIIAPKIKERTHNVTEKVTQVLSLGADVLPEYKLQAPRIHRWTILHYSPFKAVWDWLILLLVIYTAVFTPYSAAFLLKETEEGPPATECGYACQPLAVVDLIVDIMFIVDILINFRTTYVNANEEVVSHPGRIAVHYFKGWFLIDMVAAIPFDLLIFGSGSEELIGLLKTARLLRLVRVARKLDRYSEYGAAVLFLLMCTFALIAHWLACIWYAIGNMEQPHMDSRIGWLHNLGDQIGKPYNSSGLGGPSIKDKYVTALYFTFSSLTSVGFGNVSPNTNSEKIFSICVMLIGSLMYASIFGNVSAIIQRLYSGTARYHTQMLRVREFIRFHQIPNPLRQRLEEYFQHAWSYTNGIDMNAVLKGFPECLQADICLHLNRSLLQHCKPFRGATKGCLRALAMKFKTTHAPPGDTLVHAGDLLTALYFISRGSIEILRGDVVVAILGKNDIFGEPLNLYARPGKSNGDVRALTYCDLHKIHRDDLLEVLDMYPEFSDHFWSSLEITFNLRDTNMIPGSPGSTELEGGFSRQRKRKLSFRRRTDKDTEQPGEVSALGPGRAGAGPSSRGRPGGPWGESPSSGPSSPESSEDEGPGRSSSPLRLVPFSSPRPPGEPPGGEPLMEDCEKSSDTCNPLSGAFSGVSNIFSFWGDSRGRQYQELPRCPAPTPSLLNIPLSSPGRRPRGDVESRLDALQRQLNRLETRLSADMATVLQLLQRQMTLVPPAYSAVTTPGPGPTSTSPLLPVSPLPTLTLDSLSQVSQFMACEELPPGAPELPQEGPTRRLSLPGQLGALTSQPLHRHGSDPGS

[8] = target: Aurora kinase B (Homo sapiens, UniProt Q96GD4); details: A549, 0.15 to 5 uM
Aurora kinase B, sequence (Q96GD4 whole entry): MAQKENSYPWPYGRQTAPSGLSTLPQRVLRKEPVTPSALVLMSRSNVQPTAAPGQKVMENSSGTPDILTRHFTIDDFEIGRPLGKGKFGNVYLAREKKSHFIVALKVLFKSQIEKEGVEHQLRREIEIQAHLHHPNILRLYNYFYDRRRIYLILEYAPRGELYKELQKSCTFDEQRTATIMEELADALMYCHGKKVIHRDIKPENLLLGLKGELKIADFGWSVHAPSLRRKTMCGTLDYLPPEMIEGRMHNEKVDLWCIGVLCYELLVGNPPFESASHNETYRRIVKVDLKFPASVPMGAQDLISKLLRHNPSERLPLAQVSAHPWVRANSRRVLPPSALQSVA
Description: Inhibition of Aurora B phosphorylation in human A549 cells at 0.15 to 5 uM after 1 hr by Western blot analysis in presence of nocodazole and proteasome inhibitor MG132

[9] = Aqueous solubility by turbidimetric analysis; format: physicochemical
[10] = system: SAOS-2; assay: Cytotoxicity against human Saos2 cells after 96 hrs by MTT assay; format: functional, cell-based; details: SAOS-2, 96 h
[11] = system: Mus musculus; assay: Toxicity in athymic mouse xenografted with human NCI-H460 cells assessed as body weight loss at 100 mg/kg, po administered QD on day 1 after implantation for 5 days measured on day 13; format: organism-based; design: dose 100 mg/kg, route oral; details: in vivo, 120 h
[12] = system: A549; assay: Cell cycle arrest in asynchronous human A549 cells assessed as accumulation of cyclin B1-negative tetraploid cells at G1 phase at 0.5 to 2 uM after 24 hrs by FACS analysis; format: functional, cell-based
[13] = system: HeLa; assay: Inhibition of Aurora kinase in human HeLa cells assessed as reduction of histone H3 serine-10 phosphorylation at 1 uM after 7 hrs immunofluorescence microscopy; format: cell-based
[14] = target: Cytochrome P450 2C9 (Homo sapiens, UniProt P11712); assay: Inhibition of human recombinant CYP2C9 at 5 uM; format: ADME; details: recombinant enzyme
Cytochrome P450 2C9, sequence (P11712 whole entry): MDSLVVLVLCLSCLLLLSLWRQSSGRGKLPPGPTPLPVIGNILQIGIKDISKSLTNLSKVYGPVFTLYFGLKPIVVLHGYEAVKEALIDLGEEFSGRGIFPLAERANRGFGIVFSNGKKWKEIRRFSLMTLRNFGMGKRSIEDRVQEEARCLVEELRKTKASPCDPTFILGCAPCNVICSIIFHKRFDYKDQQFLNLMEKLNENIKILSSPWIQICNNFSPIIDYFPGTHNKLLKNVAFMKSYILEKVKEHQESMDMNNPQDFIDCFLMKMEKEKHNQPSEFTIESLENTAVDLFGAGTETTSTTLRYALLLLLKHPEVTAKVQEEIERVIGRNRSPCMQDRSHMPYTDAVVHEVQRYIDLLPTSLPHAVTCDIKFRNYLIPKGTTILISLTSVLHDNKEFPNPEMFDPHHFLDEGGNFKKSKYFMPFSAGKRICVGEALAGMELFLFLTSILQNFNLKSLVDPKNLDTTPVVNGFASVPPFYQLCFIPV

[15] = Fraction unbound in rat plasma by equilibrium dialysis; format: ADME, cell-free
[16] = system: SW-620; assay: Effect on mitotic index in human SW620 cells assessed as appearance of polyploid cells at 1 uM after 48 hrs by propidium iodide staining-based FACS analysis; format: functional, cell-based
[17] = system: BXPC-3; assay: Cytotoxicity against human BxPC3 cells after 96 hrs by MTT assay; format: functional, cell-based; details: BXPC-3, 96 h
[18] = system: NCI-H460; assay: Antitumor activity against human NCI-H460 cells xenografted in athymic mouse assessed as delay in tumor growth at 75 mg/kg, po administered QD on day 1 after implantation for 5 days; format: functional
[19] = target: Cyclin-dependent kinase 7/ cyclin H (Homo sapiens, UniProt P50613); assay: Inhibition of CDK7/Cyclin H; format: protein-complex assay
Cyclin-dependent kinase 7/ cyclin H, sequence (P51946 whole entry): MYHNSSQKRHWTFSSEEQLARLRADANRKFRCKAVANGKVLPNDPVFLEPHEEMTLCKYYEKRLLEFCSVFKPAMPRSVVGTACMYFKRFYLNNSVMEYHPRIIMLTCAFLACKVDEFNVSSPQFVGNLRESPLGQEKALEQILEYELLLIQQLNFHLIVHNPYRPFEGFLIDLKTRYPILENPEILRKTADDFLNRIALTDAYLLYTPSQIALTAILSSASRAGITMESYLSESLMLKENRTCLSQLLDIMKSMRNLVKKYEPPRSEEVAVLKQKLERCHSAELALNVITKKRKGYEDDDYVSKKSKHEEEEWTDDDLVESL
Cyclin-dependent kinase 7/ cyclin H, sequence (P50613 whole entry): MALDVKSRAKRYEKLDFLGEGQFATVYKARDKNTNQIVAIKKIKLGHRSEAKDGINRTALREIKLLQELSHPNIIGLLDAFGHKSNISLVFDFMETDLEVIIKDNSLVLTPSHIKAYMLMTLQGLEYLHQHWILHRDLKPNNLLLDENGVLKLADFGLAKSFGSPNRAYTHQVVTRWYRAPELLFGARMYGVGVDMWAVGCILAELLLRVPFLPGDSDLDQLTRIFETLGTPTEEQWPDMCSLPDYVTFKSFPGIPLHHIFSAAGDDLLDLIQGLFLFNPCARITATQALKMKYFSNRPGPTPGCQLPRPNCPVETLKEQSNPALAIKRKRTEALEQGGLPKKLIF

[20] = target: Cytochrome P450 2C19 (Homo sapiens, UniProt P33261); assay: Inhibition of human recombinant CYP2C19 at 5 uM; format: ADME; details: recombinant enzyme
Cytochrome P450 2C19, sequence (P33261 whole entry): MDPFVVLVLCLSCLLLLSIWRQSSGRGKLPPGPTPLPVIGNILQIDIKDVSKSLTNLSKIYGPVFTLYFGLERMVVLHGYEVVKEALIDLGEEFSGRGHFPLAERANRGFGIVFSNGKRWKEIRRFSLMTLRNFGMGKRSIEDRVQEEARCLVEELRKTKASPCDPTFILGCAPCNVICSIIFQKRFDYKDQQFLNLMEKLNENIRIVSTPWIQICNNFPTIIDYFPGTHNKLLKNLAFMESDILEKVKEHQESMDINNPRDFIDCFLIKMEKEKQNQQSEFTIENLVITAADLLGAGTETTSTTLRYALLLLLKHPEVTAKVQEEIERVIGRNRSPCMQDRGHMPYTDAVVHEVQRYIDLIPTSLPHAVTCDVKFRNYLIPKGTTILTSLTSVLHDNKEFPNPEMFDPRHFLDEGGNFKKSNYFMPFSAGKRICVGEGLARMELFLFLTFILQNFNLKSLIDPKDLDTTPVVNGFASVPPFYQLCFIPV

[21] = target: Cytochrome P450 3A (Homo sapiens, UniProt P08684+P20815+Q9HB55+P24462); assay: Inhibition of CYP3A in human hepatocyte at 5 uM; format: ADME, cell-based; details: hepatocytes
[22] = target: Mitogen-activated protein kinase 14 (Homo sapiens, UniProt Q16539); assay: Inhibition of SAPK2A
Mitogen-activated protein kinase 14, sequence (Q16539 whole entry): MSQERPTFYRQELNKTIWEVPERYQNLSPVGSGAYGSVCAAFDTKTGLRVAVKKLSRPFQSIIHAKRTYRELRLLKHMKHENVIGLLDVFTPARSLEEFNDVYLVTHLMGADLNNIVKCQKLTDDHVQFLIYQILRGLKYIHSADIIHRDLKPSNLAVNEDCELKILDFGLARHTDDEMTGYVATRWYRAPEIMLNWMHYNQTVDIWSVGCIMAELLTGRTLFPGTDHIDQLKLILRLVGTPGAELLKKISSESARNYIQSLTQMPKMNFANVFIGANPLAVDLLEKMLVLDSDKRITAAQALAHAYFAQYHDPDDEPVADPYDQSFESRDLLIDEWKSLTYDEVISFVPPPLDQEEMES

[23] = system: U2OS; assay: Inhibition of Aurora kinase in asynchronous human U2OS cells assessed as reduction of histone H3 serine-10 phosphorylation at 150 nM after 7 hrs immunofluorescence microscopy; format: cell-based
[24] = system: A2780; assay: Cytotoxicity against human A2780 cells after 96 hrs by MTT assay; format: functional, cell-based; details: A2780, 96 h
[25] = Dissociation constant, pKa by pH-metric titration method; format: physicochemical
[26] = system: NCI-H460; assay: Cytotoxicity against human NCI-H460 cells after 96 hrs by MTT assay; format: functional, cell-based; details: NCI-H460, 96 h
[27] = Oral bioavailability in mouse up to 100 mg/kg; format: ADME, organism-based; details: in vivo
[28] = Inhibition of CAMK2
[29] = system: Mus musculus; assay: Toxicity in athymic mouse xenografted with human NCI-H460 cells assessed as body weight loss at 100 mg/kg, po administered QD on day 1 after implantation for 5 days measured on day 8; format: organism-based; design: dose 100 mg/kg, route oral; details: in vivo, 120 h
[30] = target: Aurora kinase A (Homo sapiens) (UniProt O14965); assay: Inhibition of Aurora A phosphorylation in human A549 cells at 0.15 to 5 uM after 1 hr by Western blot analysis in presence of nocodazole and proteasome inhibitor MG132; format: cell-based
Aurora kinase A (Homo sapiens), sequence (O14965 whole entry): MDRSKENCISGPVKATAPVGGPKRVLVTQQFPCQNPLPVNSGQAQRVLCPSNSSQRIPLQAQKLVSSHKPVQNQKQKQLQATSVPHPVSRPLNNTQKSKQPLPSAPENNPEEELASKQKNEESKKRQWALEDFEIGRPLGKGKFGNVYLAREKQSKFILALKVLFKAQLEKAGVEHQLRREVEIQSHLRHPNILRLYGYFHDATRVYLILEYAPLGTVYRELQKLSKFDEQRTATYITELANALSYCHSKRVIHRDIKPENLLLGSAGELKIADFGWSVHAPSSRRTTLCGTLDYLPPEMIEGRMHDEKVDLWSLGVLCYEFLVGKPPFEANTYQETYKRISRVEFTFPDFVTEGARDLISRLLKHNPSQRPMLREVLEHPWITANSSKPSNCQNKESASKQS

[31] = Octanol-aqueous buffer partition coefficient, log D at pH 7.4 by shake-flask method; format: physicochemical
[32] = system: MCF7; assay: Induction of p53 protein expression in human MCF7 cells at 0.07 to 10 uM after 7 hrs by fluorescent microscopy; format: functional, cell-based
[33] = system: Mus musculus; assay: Toxicity in athymic mouse xenografted with human NCI-H460 cells assessed as body weight loss at 75 mg/kg, po administered QD on day 1 after implantation for 5 days measured on day 13; format: organism-based; design: dose 75 mg/kg, route oral; details: in vivo, 120 h
[34] = system: MIA PaCa-2; assay: Cytotoxicity against human MIAPaCa2 cells after 96 hrs by MTT assay; format: functional, cell-based; details: MIA PaCa-2, 96 h
[35] = system: A549; assay: Cell cycle arrest in asynchronous human A549 cells assessed as accumulation of cyclin B1-negative tetraploid cells at G1 phase at 0.5 to 2 uM after 7 hrs by FACS analysis; format: functional, cell-based
[36] = system: HCT-116; assay: Cytotoxicity against human HCT116 cells after 96 hrs by MTT assay; format: functional, cell-based; details: HCT-116, 96 h
[37] = Apparent volume of distribution with respect to the bioavailability in Wistar rat at 10 mg/kg, po after 24 hrs by LC/MS/MS analysis; format: ADME, organism-based; details: in vivo, read-out: Vc/F
[38] = system: HuP-T4; assay: Cytotoxicity against human HUPT4 cells after 96 hrs by MTT assay; format: functional, cell-based; details: HuP-T4, 96 h
[39] = system: SW-620; assay: Induction of apoptosis in human SW620 cells assessed as late apoptotic cells at 1 uM after 24 hrs by TUNEL assay; format: functional
[40] = target: Cytochrome P450 2D6 (Homo sapiens, UniProt P10635); assay: Inhibition of human recombinant CYP2D6 at 5 uM; format: ADME; details: recombinant enzyme
Cytochrome P450 2D6, sequence (P10635 whole entry): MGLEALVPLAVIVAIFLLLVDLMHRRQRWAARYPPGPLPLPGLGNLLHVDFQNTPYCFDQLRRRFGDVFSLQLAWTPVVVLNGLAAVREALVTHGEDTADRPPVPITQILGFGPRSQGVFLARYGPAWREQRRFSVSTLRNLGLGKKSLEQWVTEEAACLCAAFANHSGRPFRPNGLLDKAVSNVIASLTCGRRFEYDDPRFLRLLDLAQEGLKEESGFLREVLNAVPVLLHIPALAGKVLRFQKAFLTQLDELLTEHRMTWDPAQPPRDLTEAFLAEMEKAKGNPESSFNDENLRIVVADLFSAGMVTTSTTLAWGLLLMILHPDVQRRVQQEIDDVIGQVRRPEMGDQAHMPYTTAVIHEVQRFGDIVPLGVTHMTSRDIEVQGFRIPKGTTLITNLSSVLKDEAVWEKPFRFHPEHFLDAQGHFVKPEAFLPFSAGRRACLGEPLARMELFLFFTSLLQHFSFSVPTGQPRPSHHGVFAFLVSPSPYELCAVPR

[41] = system: A549; assay: Effect on mitotic index in asynchronous human A549 cells assessed as appearance of misaligned chromosomes with shortened spindle fibres at 0.5 uM after 8 hrs […]; format: functional, cell-based
[42] = system: HT-29; assay: Cytotoxicity against human HT-29 cells after 96 hrs by MTT assay; format: functional, cell-based; details: HT-29, 96 h
[43] = Half life in rat liver microsomes by LC/MS/MS analysis; format: ADME, Microsome
[44] = Cytotoxicity against human MESSA cells after 96 hrs by MTT assay; format: functional, cell-based; details: MES-SA
[45] = system: SW-620; assay: Induction of apoptosis in human SW620 cells assessed as early apoptotic cells at 1 uM after 48 hrs by TUNEL assay; format: functional
[46] = system: SW-620; assay: Induction of apoptosis in human SW620 cells assessed as late apoptotic cells at 1 uM after 48 hrs by TUNEL assay; format: functional

In the case of `Cc1nc(N)sc1-c1ccnc(Nc2ccc(N3CCOCC3)cc2)n1` [CYC-116], the Ki [1] is reported as > 10000 nM, the Ki [2] is reported as > 10000 nM and the Ki [3] is reported as > 10000 nM. The Activity [4] was “Active”, the IC50 [5] was 241 nM and the Activity [6] was 19%. The “inhibition (INH)” value [7] was “Not Active”, the inhibition [8] was “Active” and the solubility kinetic [9] was 10.5 µM (≈ 3.87 µg/mL). For the same compound, the IC50 [10] was 110 nM, the Activity [11] was “Non-toxic” and the Activity [12] was “Active”. For the same compound, the inhibition [13] was “Active”, the “inhibition (INH)” value [14] was “Active” and the fraction unbound [15] was 0.93. For the same compound, the Activity [16] was “Active”, the IC50 [17] was 1630 nM and the Activity [18] was 2.3 days. The Ki [19] was > 10000 nM, the “inhibition (INH)” value [20] was “Active” and the “inhibition (INH)” value [21] was “Active”. For the same compound, the Ki [22] was > 10000 nM, the Activity [23] was “inactive” and the IC50 [24] was 170 nM. The pKa [25] was 4.4, the IC50 [26] was 681 nM and the bioavailability [27] was ≤ 61%. For the same compound, the Ki [28] was > 10000 nM, the Activity [29] was “Toxic” and the inhibition [30] was “Active”. The logD [31] was 2.74, the Activity [32] was “inactive” and the Activity [33] was “Non-toxic”. The IC50 [34] was 278 nM, the Activity [35] was “Active” and the IC50 [36] was 340 nM. The Vd/F [37] was 8.5 L/kg, the IC50 [38] was 775 nM and the Activity [39] was 9.3%. The “inhibition (INH)” value [40] was “Active”, the Activity [41] was “Active” and the IC50 [42] was 725 nM. It also gave a half-life [43] of 32.8 min, an IC50 [44] of 90 nM and an Activity [45] of 64.8%. It also gave an Activity [46] of 34.7%.
